The values below are quoted from earlier work in patent US8202840B2, “Enhanced ocular neuroprotection and neurostimulation” (Minu L.L.C., priority 2005, dated 2012).

The target of data set [1] is immunophilin FK 506-binding protein (FKBP) (Homo sapiens, UniProt P62942). The settings on record: in vitro.
Data set [2] concerns Ganglion cells in the retina (RGC). The following applies: systemically administered.
The conditions of data set [3]: administered systemically.

Each structure is given as a SMILES string.

Sequence of immunophilin FK 506-binding protein (FKBP) (P62942 whole entry): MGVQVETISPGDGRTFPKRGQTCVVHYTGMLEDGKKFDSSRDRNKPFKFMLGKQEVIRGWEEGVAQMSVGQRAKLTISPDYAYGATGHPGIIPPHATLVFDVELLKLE

Turning to `C=CC[C@@H]1/C=C(\C)C[C@H](C)C[C@H](OC)[C@H]2O[C@@](O)(C(=O)C(=O)N3CCCC[C@H]3C(=O)O[C@H](/C(C)=C/[C@@H]3CC[C@@H](O)[C@H](OC)C3)[C@H](C)[C@@H](O)CC1=O)[C@H](C)C[C@@H]2OC` [tacrolimus, Tacrolimus], under “chloroform”, the solubility in chloroform entry is on record as “very soluble”. The solubility in ethanol result (ethanol) is recorded as “freely soluble”. Further, under “methanol”, the solubility in methanol result is listed as “very soluble”. In addition, the solubility in water entry (water) is “practically insoluble”. Moreover, in data set [1], the “binding to and inhibition of FKBP activity” value was “binds to and inhibits the activity”. The “neuroprotection on RGC” value in data set [2] was “conferred neuroprotection on RGC”. Moreover, the “renal and hepatic toxicity” value in data set [3] is “significant renal and hepatic toxicity”.
